Measured values reported in the CheMixHub viscosity set.
Where “and” joins values, the source holds several entries; their conditions need not be identical. Equal entries are not always repeated.

Columns and labels:
[1] = xn = mol fraction of the nth substance listed

CCCCC[N+](CC)(CC)CC.O=S(=O)([N-]S(=O)(=O)C(F)(F)F)C(F)(F)F
101.3 kPa
Conditions | viscosity [mPa·s]
293.15 K | 233
298.15 K | 169
303.15 K | 126
308.15 K | 96.4
313.15 K | 75.1
318.15 K | 59.6
323.15 K | 48

CC(C)C(C)C
Conditions | viscosity [mPa·s]
298 K, 101.33 kPa | 0.3249

Nc1cccc2ccccc12
Conditions | viscosity [mPa·s]
323.15 K, 101.33 kPa | 11.2

C[N+](C)(C)C.NCC(=O)[O-]
Conditions | viscosity [mPa·s]
303 K, 101 kPa | 306.2

CCCOCCO
viscosity
Conditions | 293.15 K | 298.15 K | 303.15 K | 308.15 K | 318.15 K
101 kPa | 2.575 mPa·s | 2.35 mPa·s and 2.35 mPa·s | 2.07 mPa·s and 2.124 mPa·s | – | –
101.33 kPa | – | 2.351 mPa·s | – | 1.895 mPa·s | 1.448 mPa·s

CCCCn1cc[n+](C)c1.[Cl][Fe-]([Cl])([Cl])[Cl]
101 kPa
Conditions | viscosity [mPa·s]
293.15 K | 56.56
298.15 K | 46
303.15 K | 37.95
308.15 K | 31.87
313.15 K | 27.01
318.15 K | 23.24
323.15 K | 20.16

CCCC[n+]1ccccc1.O=S(=O)([N-]S(=O)(=O)C(F)(F)F)C(F)(F)F
viscosity [mPa·s]
Conditions | 293.15 K | 298.15 K | 303.15 K | 308.15 K | 313.15 K | 323.15 K
100 kPa | 68.87 | 52.94 | 41.94 | 33.75 | 27.63 | –
101 kPa | – | – | 49.4 | – | 33.8 | 24.2

CCOP(=O)([O-])OCC.CCn1cc[n+](C)c1
100 kPa
Conditions | viscosity [mPa·s]
293.15 K | 566
298.15 K | 396.6
303.15 K | 285.4
308.15 K | 208.7
313.15 K | 155.3
318.15 K | 117.2
323.15 K | 91.75

C[C@H]1CCCC[C@H]1O
101 kPa
Conditions | viscosity [mPa·s]
298.15 K | 17.98
303.15 K | 13.53

CCCC[N+]1=C2CCCCCN2CCC1.c1c[n-]cn1
100 kPa
Conditions | viscosity [mPa·s]
293.15 K | 106.7
298.15 K | 73.92
303.15 K | 53.38
308.15 K | 40.19
313.15 K | 31.07

C1CC[C@H]2CCCC[C@@H]2C1
viscosity [mPa·s]
Conditions | 293.15 K | 303.15 K | 323.15 K
101 kPa | – | 1.616 | –
101.3 kPa | 2.118 | – | –
102 kPa | 2.14 | 1.79 | 1.3

NCCOCCOCCN.O=S(=O)([N-]S(=O)(=O)C(F)(F)F)C(F)(F)F.[Li+]
Conditions | viscosity [mPa·s]
323.15 K, 101 kPa | 108.2

N#Cc1ccccc1
Conditions | viscosity
293.15 K, 101 kPa | 1.335 mPa·s
293.15 K, 101.33 kPa | 1.382 mPa·s
298.15 K, 101 kPa | 1.237 mPa·s and 1.196 mPa·s and 1.249 mPa·s
298.15 K, 101.33 kPa | 1.282 mPa·s
303 K, 100 kPa | 1.099 mPa·s
303.15 K, 101 kPa | 1.161 mPa·s and 1.121 mPa·s and 1.124 mPa·s
303.15 K, 101.32 kPa | 1.139 mPa·s
303.15 K, 101.33 kPa | 1.148 mPa·s
308 K, 100 kPa | 1.003 mPa·s
308.15 K, 101.33 kPa | 1.063 mPa·s and 1.063 mPa·s
313 K, 100 kPa | 0.9545 mPa·s
313.15 K, 101 kPa | 0.997 mPa·s
313.15 K, 101.33 kPa | 0.993 mPa·s
318.15 K, 101 kPa | 0.931 mPa·s
323.15 K, 101 kPa | 0.872 mPa·s and 0.866 mPa·s

NNc1ccccc1
101 kPa
Conditions | viscosity
303.15 K | 10.09 mPa·s
323.1 K | 4.58 mPa·s and 4.58 mPa·s

CC(C)[C@H](N)C(=O)[O-].CCCC[P+](CCCC)(CCCC)CCCN
Conditions | viscosity [mPa·s]
298.15 K, 101 kPa | 1015

CCCCOCCCOCCCO
101.33 kPa
Conditions | viscosity [mPa·s]
298.15 K | 4.503
308.15 K | 3.313
318.15 K | 2.531

CCOCCOCCOCCO
Conditions | viscosity [mPa·s]
298.15 K, 101.33 kPa | 7.042

CCCOCCO + O=S1(=O)CCCC1
[1], 303.15 K, 101 kPa
Conditions | viscosity [mPa·s]
x2 = 0.0493 | 1.842
x2 = 0.1029 | 1.682
x2 = 0.1508 | 1.659
x2 = 0.1991 | 1.748
x2 = 0.2989 | 2.284
x2 = 0.3489 | 2.685
x2 = 0.3998 | 3.16
x2 = 0.4993 | 4.193
x2 = 0.5988 | 5.262
x2 = 0.7002 | 6.392
x2 = 0.8 | 7.572
x2 = 0.9012 | 8.861
x2 = 0.9504 | 9.498

CC(C)C(C)C + CCCCCCCCCCCCCC
[1], 298 K, 101.33 kPa
Conditions | viscosity [mPa·s]
x1 = 0.1 | 1.884
x1 = 0.2006 | 1.669
x1 = 0.3044 | 1.451
x1 = 0.4033 | 1.246
x1 = 0.503 | 1.051
x1 = 0.6031 | 0.8719
x1 = 0.701 | 0.7123
x1 = 0.8016 | 0.5711
x1 = 0.9008 | 0.4356

CCCC[N+]1=C2CCCCCN2CCC1.c1c[n-]cn1 + O
viscosity [mPa·s], [1], 100 kPa
Conditions | x1 = 0.0298 | x1 = 0.0697 | x1 = 0.0991 | x1 = 0.2001 | x1 = 0.3002 | x1 = 0.439 | x1 = 0.5972 | x1 = 0.7501 | x1 = 0.89
293.15 K | 4.316 | 12.27 | 19.53 | 55.65 | 97.57 | 133.7 | 136.6 | 127.6 | 117.4
298.15 K | 3.347 | 9.898 | 15.3 | 39.88 | 66.69 | 88.91 | 91.45 | 86.9 | 80.42
303.15 K | 2.838 | 8.133 | 12.48 | 29.5 | 47.22 | 61.57 | 63.37 | 60.13 | 57.19
308.15 K | 2.449 | 6.778 | 9.929 | 22.51 | 34.56 | 44.11 | 45.74 | 43.8 | 41.93
313.15 K | 2.138 | 5.738 | 8.244 | 17.58 | 26.15 | 32.54 | 33.55 | 32.34 | 31.79

CC(C)C(C)C + CCCCCCCCCCCCCCCC
[1], 298 K, 101.33 kPa
Conditions | viscosity [mPa·s]
x1 = 0.0846 | 2.773
x1 = 0.2077 | 2.325
x1 = 0.2966 | 2.045
x1 = 0.3988 | 1.74
x1 = 0.4973 | 1.432
x1 = 0.6023 | 1.135
x1 = 0.7034 | 0.8764
x1 = 0.8019 | 0.6623
x1 = 0.9002 | 0.4751

CCCOCCO + CN1CCCC1=O
[1], 298.15 K, 101 kPa
Conditions | viscosity [mPa·s]
x1 = 0.0057 | 1.693
x1 = 0.0142 | 1.702
x1 = 0.0273 | 1.719
x1 = 0.0609 | 1.756
x1 = 0.1004 | 1.803
x1 = 0.1386 | 1.847
x1 = 0.1786 | 1.891
x1 = 0.2186 | 1.94
x1 = 0.2578 | 1.996
x1 = 0.2966 | 2.038
x1 = 0.3343 | 2.078
x1 = 0.3852 | 2.132
x1 = 0.4436 | 2.186
x1 = 0.5011 | 2.244
x1 = 0.5422 | 2.28
x1 = 0.6093 | 2.311
x1 = 0.6638 | 2.343
x1 = 0.7673 | 2.355
x1 = 0.8387 | 2.365
x1 = 0.8702 | 2.362
x1 = 0.9445 | 2.359
x1 = 0.976 | 2.354

CC(O)CN (centres undefined) + O
viscosity [mPa·s], [1]
Conditions | 293.15 K | 298.15 K | 303.15 K | 308.15 K | 313.15 K | 318.15 K | 323.15 K
101 kPa, x1 = 0.01 | – | – | – | – | – | 0.7225 | –
101 kPa, x1 = 0.06 | – | – | – | – | – | 1.155 | –
101 kPa, x1 = 0.5995 | – | – | – | – | 12.85 | – | –
101.3 kPa, x1 = 0.0126 | 1.228 | 1.03 | 0.894 | 0.781 | 0.682 | – | 0.573
101.3 kPa, x1 = 0.026 | 1.488 | 1.273 | 1.122 | 0.99 | 0.868 | – | 0.72
101.3 kPa, x1 = 0.0565 | 2.334 | 1.985 | 1.721 | 1.493 | 1.299 | – | 1.049

N#Cc1ccccc1 + CCCCO
viscosity [mPa·s], [1], 101.33 kPa
Conditions | x1 = 0.033 | x1 = 0.1519 | x1 = 0.2155 | x1 = 0.3392 | x1 = 0.4092 | x1 = 0.504 | x1 = 0.6218 | x1 = 0.7894 | x1 = 0.9629
303.15 K | 2.094 | 1.716 | 1.583 | 1.382 | 1.3 | 1.213 | 1.149 | 1.108 | 1.119
308.15 K | 1.844 | 1.534 | 1.414 | 1.245 | 1.186 | 1.108 | 1.053 | 1.021 | 1.04
313.15 K | 1.66 | 1.378 | 1.281 | 1.14 | 1.08 | 1.02 | 0.976 | 0.945 | 0.978

NNc1ccccc1 + Oc1ccccc1Cl
[1], 323.1 K, 101 kPa
Conditions | viscosity [mPa·s]
x1 = 0.1706 | 3.51
x1 = 0.401 | 7.16
x1 = 0.508 | 8.27
x1 = 0.536 | 8.18
x1 = 0.781 | 6.955
